Key:
CC531 cells = test: Colorectal carcinoma model: CC531 cells implanted into the liver of Wag rats, tumor volume, metastasis and tolerability; type: in vivo; conditions: for Tumor Volume: % ± SD compared to untreated controls, CC531 liver tumor in Wag rats, treatment from 7th to 28th postoperative day; for tumor growth / primary tumor volume (in words): treatment day 7-28
Experimental: ombination of 1-(4-Chloroanilino)-4-(4-pyridylmethyl)phthalazine drochloride (ZK) and 3-pyridylmethyl-N-{4-[(2-amino-phenyl)-rbamoyl]benzyl}carbamate (MS) with Tamoxifen (TAM)
C cells CC531 were cultured in vitro (10th-15th passage) and implanted into e liver of adult (250 g) immuncompetent Wag rats (n/group=12). Between the venth and the 28th postoperative day the rats received either a placebo erapy, the conventional chemotherapy 5-fluoruracil (5FU, 10 mg/kg) or the llowing biomodulators alone or in combination: the VEGF receptor antagonist (4-Chloroanilino)-4-(4-pyridylmethyl)phthalazine hydrochloride (ZK) 0mg/kg), the histone deacetylase inhibitor 3-pyridylmethyl-N-{4-[(2-amino-enyl)carbamoyl]benzyl}carbamate (MS) dose and Tamoxifen (TAM) (TAM: g/kg KG i.p.). Apoptosis rate was assessed using a the TUNEL method on raformaldehyd fixed tumor material.

For `Cl.Nc1ccc2c(Cc3ccncc3)nnc(Nc3ccc(Cl)cc3)c2c1`, the melting point was > 300 °C.
For `CC(C)c1ccc(Nc2nnc(Cc3ccncc3)c3ccccc23)cc1.Cl.Cl`, the melting point was > 250 °C.
In the case of `Nc1ccccc1NC(=O)c1ccc(CNC(=O)OCc2cccnc2)cc1` [3-pyridylmethyl-N-{4-[(2-amino-phenyl)-carbamoyl]benzyl}-carbamate], the “Tumor Volume” value (CC531 cells) is reported as 80 ± 23%.
With `O=c1[nH]cc(F)c(=O)[nH]1` [5-Fluorouracil (5FU), 5-Fluorouracil, reference compound] the “Tumor Volume” value (CC531 cells) was 85 ± 19% and the “tumor growth / primary tumor volume (in words)” value (CC531 cells) was “did not reduce tumor growth”.
For `COC(=O)c1ccc(C(=O)NCc2ccc(C(=O)Nc3ccccc3N)cc2)cc1` [Example 11, N-(2-aminophenyl)-4-[N-(4-methoxycarbonylbenzoyl)aminomethyl]benzamide], the melting point was 204 to 209 °C (dec.).
For `Cc1ncsc1CCOC(=O)NCc1ccc(C(=O)Nc2ccccc2N)cc1` [Example 64, N-(2-aminophenyl)-4-[N-[2-(4-methylthiazol-5-yl)ethoxycarbonyl]aminomethyl]benzamide], the melting point was 130 to 133 °C.
In the case of `Nc1ccccc1NC(=O)c1ccc(-n2cc(COc3ccc([N+](=O)[O-])cc3)oc2=O)cc1` [Example 137, N-(2-aminophenyl)-4-[5-(4-nitrophenoxy)methyl-1,3-oxazolin-2-on-3-yl]benzamide], the melting point is reported as 162 to 164 °C.
`Nc1ccccc1NC(=O)c1ccc(-n2cc(COc3cccnc3)oc2=O)cc1` [Example 139, N-(2-aminophenyl)-4-[5-(pyridin-3-yl)oxymethyl-1,3-oxazolin-2-on-3-yl]benzamide] showed a melting point of 199 to 201 °C.
With `CC(=O)Nc1ccc(Nc2nnc(Cc3ccncc3)c3ccccc23)cc1` [Example A-11, 1-(4-Acetaminoanilino)-4-(4-pyridylmethyl)phthalazine] the melting point was > 270 °C.
In the case of `Clc1ccc(Nc2nnc(Cc3ccncc3)c3ccccc23)cc1.O=C(O)CCC(=O)O` [K, (4-Chlorophenyl)[4-(4-pyridylmethyl)-phthalazin-1-yl]-ammonium hydrogen succinate], the “Tumor Volume” value (CC531 cells) is reported as 94 ± 20% and the “tumor growth / primary tumor volume (in words)” value (CC531 cells) is reported as “no significant reduction”.
For `Nc1ccccc1NC(=O)c1ccc(CNC(=O)OCc2cccnc2)cc1` [MS, N-(2-aminophenyl)-4-[N-(pyridin-3-yl)methoxycarbonylaminomethyl]benzamide], the “tumor growth / primary tumor volume (in words)” value (CC531 cells) was “no significant reduction”.
With `CC/C(=C(\c1ccccc1)c1ccc(OCCN(C)C)cc1)c1ccccc1` [Tamoxifen (TAM), (Z)-2-[p-(1,2-diphenyl-1-butenyl)phenoxy]-N,N-dimethylethylamine, reference compound] the “Tumor Volume” value (CC531 cells) was 90 ± 10% and the “tumor growth / primary tumor volume (in words)” value (CC531 cells) was “no significant reduction”.

Reference: patent publication US20050054647A1, “New pharmaceutical combination” (priority 2002, published 2005)
